According to patent US11987543B1, “8-(4-bromobenzylideneamino)naphthalene-1,3-disulfonic acid as an antioxidant compound” (KING FAISAL UNIVERSITY, priority 2023, dated 2024):

Assay: DPPH radical scavenging antioxidant test
Type: biochemical
Conditions: for A (absorbance read against a blank at 517 nm) / Inhibition (radical scavenging inhibition): 0.2 mL DPPH (0.75 mM), compound 3 μM in ethanol, 30 min incubation in the dark
Protocol: The antioxidant properties of the 8-(4-bromobenzylideneamino)naphthalene-1,3-disulfonic acid were studied by adding 0.2 mL DPPH (0.75 mM)) to compound 8-(4-bromobenzylideneamino)naphthalene-1,3-disulfonic acid (III) (3 μM) in ethanol. After 30 min of incubation in the dark, the absorbance was read against a blank at 517 nm. Ascorbic acid (vitamin C) was used as standard antioxidants (positive control). A blank sample was prepared by 0.2 ml of DPPH in 3 ml ethanol. A negative control sample was run using ethanol instead of the sample. The radical scavenging inhibition was calculated using the following equation: […]

Row | SMILES | A (absorbance read against a blank at 517 nm) | Inhibition (radical scavenging inhibition) (517 nm) | antioxidant potential compared to vitamin C (in words) (DPPH in vitro test, vitamin C as positive control, 517 nm)
1 | O=S(=O)(O)c1cc(S(=O)(=O)O)c2c(/N=C/c3ccc(Br)cc3)cccc2c1 [Product III, 8-(4-bromobenzylideneamino)naphthalene-1,3-disulfonic acid] | 0.21 | 50% | high potential as an antioxidant compared to vitamin C
2 | O=C1O[C@H]([C@@H](O)CO)C(O)=C1O [vit c, Ascorbic acid, reference compound] | 0.12 | 74% | 
